According to patent US20080318943A1, “Compounds and Uses Thereof - 848” (ASTRAZENECA AB, priority 2007, published 2008):

What was measured:
[1] = target: T1, GABAA2 receptors (α2, β3, γ2 receptor subunits transfected into Sf9 cells) (Homo sapiens, UniProt P18507+P47869); assay: GABAA2 Binding Method ([3H]-Flunitrazepam displacement); details: [3H]-Flunitrazepam ~2 nM, α2β3γ2 Sf9 membranes, 1 hr at 4° C.
T1 construct: host or cells: Sf9 cells (membranes)
In short: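 Membranes from Sf9 cells expressing α2β3γ2 GABAA receptors incubated with ~2 nM (final) [3H]-flunitrazepam and test compound 1 h at 4 °C, then filtered on GF/B plates with cold-buffer washes. Flumazenil-defined controls; percent of control, IC50 and Ki calculated.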

GABAA receptor α1β2γ2 = target: T2, GABAA receptor α1β2γ2 (Homo sapiens, UniProt P14867+P18507); assay: Two-electrode voltage-clamp potentiation of GABA EC10 current in Xenopus oocytes, GABAA1; type: cell-based; details: percentage potentiation of GABA EC10 current divided by that of diazepam
T2 construct: expressed in transfected cells; host or cells: Xenopus laevis oocytes injected with cRNA
T2 sequence (P14867 28-456): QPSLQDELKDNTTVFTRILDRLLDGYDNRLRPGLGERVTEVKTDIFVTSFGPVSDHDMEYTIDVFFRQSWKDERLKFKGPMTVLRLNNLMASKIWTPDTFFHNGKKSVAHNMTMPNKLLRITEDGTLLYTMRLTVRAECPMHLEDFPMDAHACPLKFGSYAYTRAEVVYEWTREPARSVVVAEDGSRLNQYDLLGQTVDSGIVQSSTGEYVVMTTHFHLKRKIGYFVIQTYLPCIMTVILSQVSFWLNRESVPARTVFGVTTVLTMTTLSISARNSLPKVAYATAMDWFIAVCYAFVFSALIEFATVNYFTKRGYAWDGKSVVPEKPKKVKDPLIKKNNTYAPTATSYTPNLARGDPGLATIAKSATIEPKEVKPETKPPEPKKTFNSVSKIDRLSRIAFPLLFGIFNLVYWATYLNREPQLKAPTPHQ
T2 sequence (P47870 25-512 partner limits assumed): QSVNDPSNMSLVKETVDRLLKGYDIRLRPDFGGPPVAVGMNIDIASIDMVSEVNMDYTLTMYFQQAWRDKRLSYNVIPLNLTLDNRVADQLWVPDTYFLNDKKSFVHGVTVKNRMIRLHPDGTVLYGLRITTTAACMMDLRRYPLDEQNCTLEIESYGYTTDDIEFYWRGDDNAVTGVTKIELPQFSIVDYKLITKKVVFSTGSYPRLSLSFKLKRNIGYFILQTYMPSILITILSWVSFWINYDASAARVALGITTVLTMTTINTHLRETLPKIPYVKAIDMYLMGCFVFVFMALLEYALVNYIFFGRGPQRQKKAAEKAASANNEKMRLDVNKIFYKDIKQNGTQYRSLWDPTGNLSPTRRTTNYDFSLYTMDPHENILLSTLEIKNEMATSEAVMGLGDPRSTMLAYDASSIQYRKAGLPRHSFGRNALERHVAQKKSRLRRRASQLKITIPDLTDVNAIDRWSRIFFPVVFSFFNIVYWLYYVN
T2 sequence (P18507 40-475): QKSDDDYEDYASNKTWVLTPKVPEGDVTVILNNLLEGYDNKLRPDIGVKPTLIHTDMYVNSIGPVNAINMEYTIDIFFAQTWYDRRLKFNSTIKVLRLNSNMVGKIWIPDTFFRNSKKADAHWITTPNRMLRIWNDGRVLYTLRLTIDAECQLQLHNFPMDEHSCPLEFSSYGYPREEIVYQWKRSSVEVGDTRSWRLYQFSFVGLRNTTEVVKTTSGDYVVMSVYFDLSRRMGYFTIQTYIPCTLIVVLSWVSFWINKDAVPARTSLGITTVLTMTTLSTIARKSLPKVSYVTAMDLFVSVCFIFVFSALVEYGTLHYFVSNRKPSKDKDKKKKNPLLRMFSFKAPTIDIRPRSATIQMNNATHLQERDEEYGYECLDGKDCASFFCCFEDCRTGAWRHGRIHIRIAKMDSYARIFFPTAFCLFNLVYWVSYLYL
In short: (§1)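 Human GABAA receptors expressed in Xenopus oocytes by cRNA injection (α:β:γ molar ratio ~1:1:10 for α1β2γ2, 1:1:1 for α2β3γ2), recorded 2-10 days later by two-electrode voltage clamp at −60 mV in ND-96, pH 7.5. Modulator preapplied 30 s before GABA at per-oocyte EC10. Peak-current percent potentiation over GABA alone, normalised to diazepam.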

GABAA receptor α2β3γ2 = target: T3, GABAA receptor α2β3γ2 (Homo sapiens, UniProt P18507+P47869); assay: Two-electrode voltage-clamp potentiation of GABA EC10 current in Xenopus oocytes, GABAA2; type: cell-based; details: percentage potentiation of GABA EC10 current divided by that of diazepam
T3 construct: expressed in transfected cells; host or cells: Xenopus laevis oocytes injected with cRNA
T3 sequence (P47869 29-451): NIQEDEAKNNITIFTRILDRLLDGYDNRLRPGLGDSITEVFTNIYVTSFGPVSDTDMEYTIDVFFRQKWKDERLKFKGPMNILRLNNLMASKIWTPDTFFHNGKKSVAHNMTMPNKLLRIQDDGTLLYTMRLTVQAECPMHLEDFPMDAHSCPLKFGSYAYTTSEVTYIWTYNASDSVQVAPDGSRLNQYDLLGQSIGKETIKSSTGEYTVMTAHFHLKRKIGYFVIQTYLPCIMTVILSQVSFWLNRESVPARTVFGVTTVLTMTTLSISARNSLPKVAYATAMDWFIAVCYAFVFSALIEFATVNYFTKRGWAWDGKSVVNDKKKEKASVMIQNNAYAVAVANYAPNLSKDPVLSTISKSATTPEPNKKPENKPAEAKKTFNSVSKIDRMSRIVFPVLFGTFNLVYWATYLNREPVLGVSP
T3 sequence (P28472 26-473 partner): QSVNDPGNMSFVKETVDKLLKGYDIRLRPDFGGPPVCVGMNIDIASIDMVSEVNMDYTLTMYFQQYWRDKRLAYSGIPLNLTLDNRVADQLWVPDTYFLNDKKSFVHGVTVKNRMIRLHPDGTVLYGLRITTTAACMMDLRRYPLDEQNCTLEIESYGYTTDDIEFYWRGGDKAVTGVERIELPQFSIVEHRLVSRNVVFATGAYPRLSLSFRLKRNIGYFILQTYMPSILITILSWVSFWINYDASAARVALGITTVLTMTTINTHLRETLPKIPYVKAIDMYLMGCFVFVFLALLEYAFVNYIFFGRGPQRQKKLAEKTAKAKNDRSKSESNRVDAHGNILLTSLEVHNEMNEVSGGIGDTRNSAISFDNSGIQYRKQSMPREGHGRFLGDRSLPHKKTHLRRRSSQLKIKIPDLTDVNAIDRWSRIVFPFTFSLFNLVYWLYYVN
T3 sequence (P18507 40-475): as the sequence (P18507 40-475) above
In short: as §1

T1 sequence (P47869 29-451): as the sequence (P47869 29-451) above
T1 sequence (P28472 26-473 partner): as the sequence (P28472 26-473 partner) above
T1 sequence (P18507 40-475): as the sequence (P18507 40-475) above

Row | SMILES | Ki [1] | Relative Potentiation for GABAA1 (GABAA receptor α1β2γ2) | Relative Potentiation for GABAA2 (GABAA receptor α2β3γ2)
1 | CCCN1Cc2nc3c(-c4cc(C)cnc4OC)cccc3c(N)c2C1=O [9-amino-5-(2-methoxy-5-methylpyridin-3-yl)-2-propyl-2,3-dihydro-1H-pyrrolo[3,4-b]quinolin-1-one] | 0.00359 µM | 0.58 | 0
2 | CCCN1Cc2nc3c(-c4cccnc4OC)cccc3c(N)c2C1=O [9-amino-5-(2-methoxypyridin-3-yl)-2-propyl-2,3-dihydro-1H-pyrrolo[3,4-b]quinolin-1-one] | 0.0421 µM | 0.36 | 0.58
3 | CCCN1Cc2nc3c(-c4cccnc4C)cccc3c(N)c2C1=O [9-amino-5-(2-methylpyridin-3-yl)-2-propyl-2,3-dihydro-1H-pyrrolo[3,4-b]quinolin-1-one] | 0.0114 µM | 0.22 | 0.26
4 | CCCN1Cc2nc3c(-c4cccc(OC)c4)cccc3c(N)c2C1=O [9-amino-5-(3-methoxyphenyl)-2-propyl-2,3-dihydro-1H-pyrrolo[3,4-b]quinolin-1-one] | 0.0629 µM | 0.31 | 0.3
5 | CCCN1Cc2nc3c(-c4ccc(F)cc4OC)cccc3c(N)c2C1=O [9-amino-5-(4-fluoro-2-methoxyphenyl)-2-propyl-2,3-dihydro-1H-pyrrolo[3,4-b]quinolin-1-one] | 0.0608 µM | 0.2 | 0.2
6 | CCCN1Cc2nc3c(-c4cnccc4OC)cccc3c(N)c2C1=O [9-amino-5-(4-methoxypyridin-3-yl)-2-propyl-2,3-dihydro-1H-pyrrolo[3,4-b]quinolin-1-one] | 0.0392 µM | 0.39 | 0.62
7 | CCCN1Cc2nc3c(-c4cnccc4C)cccc3c(N)c2C1=O [9-amino-5-(4-methylpyridin-3-yl)-2-propyl-2,3-dihydro-1H-pyrrolo[3,4-b]quinolin-1-one] | 0.0557 µM | 0.36 | 0.34
8 | CCCN1Cc2nc3c(-c4cc(Cl)ccc4OC)cccc3c(N)c2C1=O [9-amino-5-(5-chloro-2-methoxyphenyl)-2-propyl-2,3-dihydro-1H-pyrrolo[3,4-b]quinolin-1-one] | 0.0396 µM | 0.36 | 0.54
9 | CCCN1Cc2nc3c(-c4cc(F)ccc4OC)cccc3c(N)c2C1=O [9-amino-5-(5-fluoro-2-methoxyphenyl)-2-propyl-2,3-dihydro-1H-pyrrolo[3,4-b]quinolin-1-one] | 0.0803 µM | 0.19 | 0.25
10 | CCCN1Cc2nc3c(-c4ccc(F)nc4C)cccc3c(N)c2C1=O [9-amino-5-(6-fluoro-2-methylpyridin-3-yl)-2-propyl-2,3-dihydro-1H-pyrrolo[3,4-b]quinolin-1-one] | 0.0223 µM | 1.7 | 0.48
11 | CCCN1Cc2nc3c(-c4cnc(F)c(C)c4)cccc3c(N)c2C1=O [9-amino-5-(6-fluoro-5-methylpyridin-3-yl)-2-propyl-2,3-dihydro-1H-pyrrolo[3,4-b]quinolin-1-one] | 0.0303 µM | 0.31 | 0.32
12 | COc1ccc(CN2Cc3nc4c(-c5ccc(-c6ccc(Cl)nc6)nc5)cccc4c(N)c3C2=O)cc1OC [9-amino-5-(6′-chloro-2,3′-bipyridin-5-yl)-2-(3,4-dimethoxybenzyl)-2,3-dihydro-1H-pyrrolo[3,4-b]quinolin-1-one] | 0.0204 µM | −0.048 | 0.023
13 | COc1ccc(CN2Cc3nc4c(-c5c(F)cccc5OC)cccc4c(N)c3C2=O)cc1 [Example 1, 9-Amino-5-(2-fluoro-6-methoxyphenyl)-2-(4-methoxybenzyl)-2,3-dihydropyrrolo[3,4-b]quinolin-1-one] | 0.0098 µM | −0.034 | 0.2
14 | COc1ccc(CN2Cc3nc4c(-c5cc(F)ccc5F)cccc4c(N)c3C2=O)cc1 [Example 2] | 0.0443 µM | 0.12 | 0.13
15 | COc1ccc(CN2Cc3nc4c(-c5cccnc5OC)cccc4c(N)c3C2=O)cc1 [Example 3, 9-Amino-2-(4-methoxybenzyl)-5-(2-methoxypyridin-3-yl)-2,3-dihydropyrrolo[3,4-b]quinolin-1-one] | 0.022 µM | 0.12 | 0.68

The next lines start with the values.

Row | Ki [1] | Relative Potentiation for GABAA1 (GABAA receptor α1β2γ2) | Relative Potentiation for GABAA2 (GABAA receptor α2β3γ2) | SMILES
16 | 0.0312 µM | 0.013 | 0.18 | COc1ccc(OC)c(CN2Cc3nc4c(-c5cccnc5OC)cccc4c(N)c3C2=O)c1 [Example 4, 9-Amino-2-(2,5-dimethoxybenzyl)-5-(2-methoxypyridin-3-yl)-2,3-dihydropyrrolo[3,4-b]quinolin-1-one]
17 | 0.00503 µM | 0.11 | 0.3 | CCCN1Cc2nc3c(-c4c(F)cccc4OC)cccc3c(N)c2C1=O [Example 5, 9-Amino-5-(2-fluoro-6-methoxyphenyl)-2-propyl-2,3-dihydropyrrolo[3,4-b]quinolin-1-one]
18 | 0.0173 µM | 0.13 | 0.22 | CCCN1Cc2nc3c(-c4cccc(C)c4C)cccc3c(N)c2C1=O [Example 6, 9-Amino-5-(2,3-dimethylphenyl)-2-propyl-2,3-dihydropyrrolo[3,4-b]quinolin-1-one]
19 | 0.0943 µM | 0.16 | 0.27 | CCCN1Cc2nc3c(-c4cc(C)cc(C)c4)cccc3c(N)c2C1=O [Example 7, 9-Amino-5-(3,5-dimethylphenyl)-2-propyl-2,3-dihydropyrrolo[3,4-b]quinolin-1-one]
20 | 0.0459 µM | 0.013 | 0.07 | COc1ccc(CN2Cc3nc4c(-c5ccc(Cl)nc5)cccc4c(N)c3C2=O)cc1OC [Example 8, 9-Amino-5-(6-chloropyridin-3-yl)-2-(3,4-dimethoxybenzyl)-2,3-dihydropyrrolo[3,4-b]quinolin-1-one]
21 | 0.0281 µM | 0.068 | 0.31 | CCCN1Cc2nc3c(-c4ccc(OC)nc4OC)cccc3c(N)c2C1=O [Example 9, 9-Amino-5-(2,6-dimethoxypyridin-3-yl)-2-propyl-2,3-dihydropyrrolo[3,4-b]quinolin-1-one]
22 | 0.0922 µM | 0.092 | 0.19 | CCCN1Cc2nc3c(-c4ccc(C)nc4)cccc3c(N)c2C1=O [Example 10, 9-Amino-5-(6-methylpyridin-3-yl)-2-propyl-2,3-dihydropyrrolo[3,4-b]quinolin-1-one]
23 | 0.011 µM | 0.15 | 0.19 | COc1ccc(OC)c(-c2cccc3c(N)c4c(nc23)CN(Cc2ccc(OC)c(OC)c2)C4=O)c1 [Example 11, 9-Amino-2-(3,4-dimethoxybenzyl)-5-(2,5-dimethoxyphenyl)-2,3-dihydropyrrolo[3,4-b]quinolin-1-one]
